Assays:
Details in all cases: exposure time: 90 min
30145 [1] = donor line of iPSC-derived cardiomyocytes; assay: POD (EC10) for decrease in total cell number (cytotoxicity) vs vehicle; higher = less potent (higher point of departure)
Experimental: (§1)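 Human iPSC-derived cardiomyocytes from 16 donors were exposed for 90 min at 37 °C to each PFAS at 0.1, 1, 10 and 100 µM in 0.5% DMSO, 384-well plates. Kinetic Ca2+ flux (FLIPR) and Hoechst nuclei counts were normalised to vehicle wells and fitted with a hierarchical Bayesian Hill model to give donor-specific PODs: EC05 for beat-rate increase or decrease and for decay-to-rise ratio increase (QT proxy), EC95 for peak-frequency loss (asystole), EC10 for total cell number loss. 0.03 µM is the lower bound.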

20032 [2] = donor line of iPSC-derived cardiomyocytes; assay: as above
Experimental: as §1

1531 [3] = donor line of iPSC-derived cardiomyocytes; assay: as above
Experimental: as §1

1309 [4] = donor line of iPSC-derived cardiomyocytes; assay: as above
Experimental: as §1

1118 = donor line of iPSC-derived cardiomyocytes; assay: POD (EC95) for loss of peak frequency (asystole) vs vehicle; higher = less potent (higher point of departure)
Experimental: as §1

1368 = donor line of iPSC-derived cardiomyocytes; assay: as above
Experimental: as §1

1083 = donor line of iPSC-derived cardiomyocytes; assay: as above
Experimental: as §1

30171 = donor line of iPSC-derived cardiomyocytes; assay: as above
Experimental: as §1

11235 = donor line of iPSC-derived cardiomyocytes; assay: as above
Experimental: as §1

20084 = donor line of iPSC-derived cardiomyocytes; assay: as above
Experimental: as §1

30145 [5] = assay: as above
Experimental: as §1

1516 = donor line of iPSC-derived cardiomyocytes; assay: as above
Experimental: as §1

1434 = donor line of iPSC-derived cardiomyocytes; assay: as above
Experimental: as §1

20032 [6] = assay: as above
Experimental: as §1

1392 = donor line of iPSC-derived cardiomyocytes; assay: as above
Experimental: as §1

1535 = donor line of iPSC-derived cardiomyocytes; assay: as above
Experimental: as §1

1518 = donor line of iPSC-derived cardiomyocytes; assay: as above
Experimental: as §1

1531 [7] = assay: as above
Experimental: as §1

1565 = donor line of iPSC-derived cardiomyocytes; assay: as above
Experimental: as §1

1309 [8] = assay: as above
Experimental: as §1

Row | SMILES | POD vs vehicle 30145 [1] [µM] | POD vs vehicle 20032 [2] [µM] | POD vs vehicle 1531 [3] [µM] | POD vs vehicle 1309 [4] [µM] | POD vs vehicle 1118 [µM] | POD vs vehicle 1368 [µM] | POD vs vehicle 1083 [µM] | POD vs vehicle 30171 [µM] | POD vs vehicle 11235 [µM] | POD vs vehicle 20084 [µM] | POD vs vehicle 30145 [5] [µM] | POD vs vehicle 1516 [µM] | POD vs vehicle 1434 [µM] | POD vs vehicle 20032 [6] [µM] | POD vs vehicle 1392 [µM] | POD vs vehicle 1535 [µM] | POD vs vehicle 1518 [µM] | POD vs vehicle 1531 [7] [µM] | POD vs vehicle 1565 [µM] | POD vs vehicle 1309 [8] [µM]
1 | NC(=O)C(F)(F)C(F)(F)C(F)(F)C(F)F | > 100 | > 100 | > 100 | > 100 | > 100 | > 100 | > 100 | > 100 | > 100 | > 100 | > 100 | > 100 | > 100 | > 100 | > 100 | > 100 | > 100 | > 100 | > 100 | > 100
2 | OCC(O)CC(F)(F)C(F)(F)C(F)(F)C(F)(F)C(F)(F)C(F)(F)C(F)(F)C(F)(F)F (stereo unspecified) [1-(Perfluorofluorooctyl)propane-2,3-diol] | > 100 | > 100 | > 100 | > 100 | 1.19 | > 100 | > 100 | > 100 | > 100 | > 100 | > 100 | > 100 | > 100 | > 100 | > 100 | > 100 | > 100 | > 100 | > 100 | > 100
3 | CC(O)C(F)(F)C(F)(F)F (stereo unspecified) [1-Pentafluoroethylethanol] | > 100 | > 100 | > 100 | > 100 | > 100 | > 100 | > 100 | > 100 | > 100 | > 100 | > 100 | > 100 | > 100 | > 100 | > 100 | > 100 | > 100 | > 100 | > 100 | > 100
4 | OCC(F)(F)C(F)(F)C(F)(F)C(F)F [1H,1H,5H-Perfluoropentanol] | > 100 | > 100 | > 100 | > 100 | 86.3 | > 100 | > 100 | > 100 | > 100 | > 100 | > 100 | > 100 | > 100 | > 100 | > 100 | > 100 | > 100 | > 100 | > 100 | > 100
5 | O=S(=O)(OCC(F)(F)F)C(F)(F)C(F)(F)C(F)(F)C(F)(F)F [2,2,2-Trifluoroethyl_perfluorobutanesulfonate] | > 100 | > 100 | > 100 | > 100 | > 100 | > 100 | > 100 | > 100 | > 100 | > 100 | > 100 | > 100 | > 100 | > 100 | > 100 | > 100 | > 100 | > 100 | > 100 | > 100
6 | O=C(O)C(F)(F)C(F)(F)C(F)F [2,2,3,3,4,4-Hexafluorobutanoic_acid] | > 100 | > 100 | > 100 | > 100 | > 100 | > 100 | > 100 | > 100 | > 100 | > 100 | > 100 | > 100 | > 100 | > 100 | > 100 | > 100 | > 100 | > 100 | > 100 | > 100
7 | NC(O)(C(F)(F)F)C(F)(F)F [2-Aminohexafluoropropan-2-ol] | > 100 | > 100 | > 100 | > 100 | > 100 | > 100 | > 100 | > 100 | 72.8 | > 100 | > 100 | > 100 | > 100 | > 100 | > 100 | > 100 | > 100 | > 100 | > 100 | > 100
8 | O=C(O)CCC(F)(F)C(F)(F)C(F)(F)C(F)(F)C(F)(F)F [2H,2H,3H,3H-Perfluorooctanoic_acid] | > 100 | > 100 | > 100 | > 100 | 67.4 | > 100 | > 100 | 71.8 | 59.9 | 66.4 | 77.8 | 75.1 | 90.8 | > 100 | 73 | > 100 | > 100 | 92.7 | > 100 | > 100
9 | OCC(F)(F)OC(F)(F)C(F)(F)OC(F)(F)C(F)(F)OC(F)(F)F [Fluorinated_triethylene_glycol_monomethyl_ether] | > 100 | – | – | 65.6 | 9.61 | > 100 | > 100 | > 100 | > 100 | > 100 | > 100 | > 100 | > 100 | > 100 | > 100 | > 100 | > 100 | > 100 | > 100 | > 100
10 | CN(CCO)S(=O)(=O)C(F)(F)C(F)(F)C(F)(F)C(F)(F)C(F)(F)C(F)(F)C(F)(F)C(F)(F)F [N-Methyl-N-(2-hydroxyethyl)perfluorooctanesulfonamide] | > 100 | > 100 | > 100 | > 100 | – | > 100 | 65 | 69.7 | > 100 | > 100 | > 100 | > 100 | > 100 | > 100 | > 100 | > 100 | > 100 | > 100 | > 100 | > 100
11 | O=C(O)C(F)(F)C(F)(F)C(F)(F)C(F)(F)C(=O)O [Octafluoroadipic_acid] | > 100 | – | > 100 | > 100 | > 100 | > 100 | > 100 | > 100 | > 100 | > 100 | > 100 | > 100 | > 100 | > 100 | > 100 | > 100 | > 100 | > 100 | > 100 | > 100

Source: the supplement of paper PMC11368000
